Series [1] in a line: Naltrexone excipient screen, rapid solubility assay. In kind it is physicochemical. On the procedure:
Heat extruded polycaprolactone (PCL) tubes were fabricated (2.5 mm×40 mm) using 80 kDa PCL to produce devices with 70 μm and 100 μm wall thicknesses. […] In vitro release studies involved incubation of devices in 40 mL of phosphate buffered saline (PBS), pH 7.4 in a shaking incubator at 37° C. Implants were transferred to fresh buffer three times per week to maintain sink conditions. The concentration of drugs released in media over time was measured via UV-vis spectroscopy. Solubility, stability, and purity of APIs in excipient were evaluated via HPLC.

The nature of series [2]: Stability of Naltrexone base in excipients. To be noted: stability results. In kind it is physicochemical.
For series [3] the following is noted: rhesus monkey, in vivo; cited from earlier work.
A short description of series [4]: In vitro release from PCL reservoir implants in PBS pH 7.4 at 37 °C (UV-Vis). In kind it is physicochemical. The note with it: for Daily RR: PCL 89 kDa. The procedure: The implants were incubated in 1×PBS (pH 7.4) at 37° C. Drug quantity released in media was measured via UV-Vis three times per week during which the implants were transferred to fresh buffer to maintain sink conditions. Drug concentrations were determined by correlating UV absorbance values to a standard curve. Standard curves involved measuring peak absorbance values as a function of drug concentrations diluted by half from bulk solutions. Peak absorbance values were determined by scanning the dilute drug solutions from 230 to 700 nm at a step size of 1 nm and assessing the maximum UV absorbance value.
Testing was performed to evaluate release kinetics of varying formulations of active agent and excipient. In particular, the release mechanism and release profiles for TAF formulated with varying mass quantities of castor oil from extruded PCL tubes was evaluated. Heat extruded PCL devices were fabricated (2.5 mm×40 mm) using 80 kDa Sigma grade PCL. […] For the in vitro release studies, devices were incubated in 40 mL of phosphate buffered saline (PBS) at pH 7.4 in a shaking incubator at 37° C. The implants were transferred to fresh buffer three times per week to maintain sink conditions.
Testing was performed to evaluate the in vitro release profile for an exemplary segmented device. In-vitro conditions included a simulated physiological media of a salt solution at pH between 6.5 and 7.5 at a temperature of 37° C. The exemplary device was engineered to release two APIs simultaneously, both at zero-order release kinetics. The device was fabricated with a segmented architecture that contained LNG formulated with ethyl oleate at a 1:4 ratio and EFdA formulated with castor oil at a 1:1 ratio and housed in separate compartments within a single implant design. Different segment lengths, polymer membrane thicknesses and polymer properties were tested.
In vitro release characterization involved incubation of the implants in 40 mL 1× phosphate buffered saline (PBS) (pH 7.4) at 37° C. and placed on an orbital shaker. […] The release buffer was sampled three times per week during which the devices were transferred to 40 mL of fresh buffer to maintain sink conditions. TAF quantity released in each PBS buffer during the time interval was calculated and cumulative mass of drug release as a function of time was determined.

A short description of series [5]: Chromatographic purity (stability) of formulation inside implant after in-vitro exposure (UPLC/UV). It is filed as physicochemical.
The nature of series [6]: In vivo study of one or two subcutaneous PC12 implants, 90 days (Example 20). On the set-up: species or system New Zealand white rabbits. The note with it: hormone in subcutaneous implant. On the procedure:
In vivo analysis was performed with 20 naïve New Zealand white rabbits. […] In particular, female NZW rabbits each received two subcutaneous implants bilaterally inserted into the subscapular region: (1) one implant that contained an ARV drug and (2) one implant that contained a hormonal contraceptive drug. Both implants remained in the subcutaneous space for 90 days. Blood samples were taken at 0, 1, 3, 7, […], 45, 60, 75, and 90 days. After 90 days, the animals were euthanized, and the implants were retrieved. Tissues were collected and analyzed for levels of ARVs (TFV, TAF, and TFV-DP). As a comparator for the dual insertion modality, each female NZW rabbit in a separate group received a single implant, where each implant contained a single drug formulation: either ARV or hormone. The implant remained in the subcutaneous space for 90 days. Blood samples were taken at 0, 1, 3, 7, 15, 30, 45, 60, 75, and 90 days. After 90 days, the animals were euthanized, and the implants were retrieved. Tissues were collected and analyzed for levels of ARVs (TFV, TAF, and TFV-DP). The polymer was PC12.

Another series is described as follows: physchem. The note with it: 37 °C, organic solvent or mixture, thermodynamic from solid, Solubility. On the procedure:
Over a 24-hour period, the solutions were mixed periodically and returned to the water bath. After approximately 72 hours, the solutions were removed from the water bath and appearance recorded for each of the saturated solutions. […] The supernatants were prepared for analysis by UPLC. Triplicate weighed aliquots were prepared from the collected supernatants and analyzed for assay using a UPLC/UV method. The analysis was performed using a Waters BEH C18 column (2.1 mm×50 mm, 1.7 μm) under gradient, reversed phase conditions with detection at 260 nm. The saturated solutions were quantitated by linear regression analysis against a 5-point calibration curve.
Testing using the same methodology was performed for EFdA, LNG, and ENG using various excipients.

Series [7] in a line: Evaluation of Elvitegravir for use in the device.
Experimental: Elvitegravir, which is marketed by Gilead, was also evaluated.
The mark [8] stands for this setting: segmented implant: ENG:sesame oil 2:1 (10 mm, 200 μm) + TAF base:castor oil 2:1 (40 mm, 70 μm).
Where [9] appears, read: segmented implant: ENG:sesame oil 2:1 (10 mm, 200 μm) + TAF base:sesame oil 2:1 (40 mm, 70 μm).

The values below come from patent publication US12515027B2, “Subcutaneous biodegradable reservoir device” (Research Triangle Institute, priority 2018, dated 2026).

SMILES strings stand for the structures. Converted amounts (≈) assume the structure as drawn. “And” between values parts separate entries of the source, which are not always exact repeats. Identical values can stand only once. Counter-ions that a name gives are not always drawn. Bounds are passed on as bounds.

As for `O=C1CC[C@@]2(O)[C@H]3Cc4ccc(O)c5c4[C@@]2(CCN3CC2CC2)[C@H]1O5` [Naltrexone Base, Naltrexone], the “Sum of impurities (% total area)” value in series [1] (API alone, no excipient (reference line)) was 2.50%; in series [1] (excipient screen, in PEG600), 2.10%; in series [1] (excipient screen, in castor oil), 4.50%; in series [1] (excipient screen, in ethyl oleate) it was 9.60%; in series [1] (excipient screen, in sesame oil), 3.20%; in series [2] (with PEG600), 5.10%. Also, the “Sum of impurities (% total area)” value was determined as 5.20% in series [2] (with castor oil), 9.90% in series [2] (with ethyl oleate) and 6.40% in series [2] (with sesame oil). Further, the Assay in series [1] (in PEG600) amounted to 46.2 mg/mL; in series [1] (in castor oil), 9.63 mg/mL; in series [1] (in ethyl oleate), 2.79 mg/mL; in series [1] (in sesame oil), 4.62 mg/mL.
Turning to `CC(Cn1cnc2c(N)ncnc21)OCP(=O)(O)OP(=O)(O)OP(=O)(O)O` (stereo in doubt) [TFV-DP, tenofovir diphosphate], the “duration of sustained levels in PBMCs” value in series [3] is given as 83 days.
As to `C#C[C@]1(O)CC[C@H]2[C@@H]3CCC4=CC(=O)CC[C@@H]4[C@H]3C(=C)C[C@@]21CC` [ENG, Etonogestrel], the Release rate in series [4] (10 mm-long devices, 200 μm implants per b165 (second listing in Table 5)) is ~30 µg/day. The “start of deviation from linear release” value in series [4] (ENG 1:4 and 1:1 drug to excipient ratios, depletion of drug) is ~50 days. For the same compound, the “duration of sustained release with zero-order kinetics” value in series [4] (ENG 2:1 ratio with castor oil or sesame oil) is on record as “approximately 300 days”. Also, in series [4] (exemplary device, in vitro conditions), the “sustained period of release at about 30 μg/day” value is “up to 180 days”. The “duration of linear release profile in vitro” value in series [4] (exemplary formulations, summary statement) is 230 days. In addition, the “Daily RR” value was determined as 26.2 ± 7.1 µg/day in series [4] (setting [8]) and 26.3 ± 6.7 µg/day in series [4] (setting [9]). The “duration of zero-order release from segmented implants” value in series [4] (segmented implants of TAF with LNG or ENG) is on record as 50 days. Further, in series [5] (after 180-day in-vitro exposure, 200 μm implants per b165 (second listing in Table 5)), the “% Purity at 180 Days” value is recorded as 99%. For the same compound, in series [5] (tested at 180 days in in-vitro conditions), the “stability within an exemplary implant” value is > 99%. In series [6], the “stability in vivo for 90 days” value is reported as 99.5%.
As to `O=C1CC[C@@]2(O)[C@H]3Cc4ccc(O)c5c4[C@@]2(CCN3CC2CC2)[C@H]1O5` [Naltrexone Salt, Naltrexone hydrochloride], the “Sum of impurities (% total area)” value in series [1] (API alone, no excipient (reference line), hydrochloride) came to 4.10%. The Assay was <0.1 mg/mL in series [1] (in PEG600, hydrochloride); <0.1 mg/mL in series [1] (in castor oil, hydrochloride); “No measurable solubility” in series [1] (in ethyl oleate, hydrochloride); “No measurable solubility” in series [1] (in sesame oil, hydrochloride).
`C#C[C@]1(CO)O[C@@H](n2cnc3c(N)nc(F)nc32)C[C@@H]1O` [EFdA]: in series [4] (70 μm wall, FIG. 11C study), the “release rate for the glycerol device” value is on record as 30 μg of EFdA/day. Also, the “release rate for the sesame oil device” value in series [4] (70 μm wall, FIG. 11C study) was 8 μg of EFdA/day. Besides, the “duration of sustained linear release” value is reported as 1 year in series [4] (EFdA castor oil devices, 70 μm, medical grade PCL) and “over 1 year” in series [4] (exemplary EFdA formulations, summary statement). Moreover, the “exposure after which release deviated from zero-order” value in series [4] (EFdA formulations other than castor oil) was > 200 days. Besides, the “duration of zero-order kinetics” value in series [4] (EFdA segment of segmented implant) came to 1 year. The “duration of sustained, zero order release” value in series [4] (EFdA with varying excipients, 70 μm wall) is “over 60 days”. The “duration of sustained zero-order release” value in series [4] (EFdA-castor oil devices, 80 KDa PCL, 70 μm wall) came to 200 days. The “Release Rate (μg/day, 10 mm device)” value is 10 µg/day and 10.0 µg/day in series [4] (EFdA:castor oil 1:1, 70 μm wall); 13.0 µg/day in series [4] (EFdA:ethyl oleate 1:1, 70 μm wall); 15 µg/day and 15.0 µg/day in series [4] (EFdA:glycerol 1:1, 70 μm wall); 11.0 µg/day in series [4] (EFdA:propylene glycol 1:1, 70 μm wall); 12.0 µg/day in series [4] (EFdA:sesame oil 1:1, 70 μm wall). Further, in series [4] (exemplary formulations/devices, summary statement), the “release profile / release rate” value lay in the range of 5 to 30 µg/day. In addition, in series [4] (segmented implant LNG/EFdA), the “duration of zero-order release” value is 6 months. Also, the “release rate of segment” value in series [4] (segmented implant: LNG:ethyl oleate 1:4 and EFdA:castor oil 1:1, 70 μm wall, EFdA after burst of first 10 days) was ~20 µg/day. The “% Purity at Day-365” value in series [5] (EFdA with castor oil) is listed as 99.3%; in series [5] (EFdA with ethyl oleate) it was 99.4%; in series [5] (EFdA with glycerol), 99.5%; in series [5] (EFdA with propylene glycol) it was 99.5%; in series [5] (EFdA with sesame oil), 99.3%. Moreover, the “stability within an exemplary implant” value in series [5] (after 1 year in in-vitro conditions) was ~99%. Further, the “purity after 1 year of exposure to in-vitro conditions” value in series [5] (all EFdA implants, Day-365) is reported as > 99%. For the same compound, the solubility at 72 h in the series “physchem” was found to be 34.9 mg/mL (≈ 119 mM).
For the compound `C#C[C@]1(O)CC[C@H]2[C@@H]3CCC4=CC(=O)CC[C@@H]4[C@H]3CC[C@@]21CC` [LNG, Levonorgestrel], the “stability within an exemplary implant” value in series [5] (tested at 240 days in in-vitro conditions) is “greater than 92%”. In series [6], the “stability in vivo for 90 days” value is 99.2%±0.1.
With `CC(C)OC(=O)[C@H](C)N[P@](=O)(CO[C@H](C)Cn1cnc2c(N)ncnc21)Oc1ccccc1` [TAF base], the “Daily RR” value was found to be 94.8 ± 17.6 µg/day in series [4] (setting [8]); 57.9 ± 8.6 µg/day in series [4] (setting [9]); 86.4 ± 10.3 µg/day in series [4] (segmented implant: LNG:sesame oil 2:1 (20 mm, 70 μm) + TAF base:castor oil 2:1 (30 mm, 70 μm)); 47.7 ± 6.7 µg/day in series [4] (segmented implant: LNG:sesame oil 2:1 (20 mm, 70 μm) + TAF base:sesame oil 2:1 (30 mm, 70 μm)).
For the compound `Nc1nc(=O)n([C@@H]2CS[C@H](COP(=O)(O)OP(=O)(O)OP(=O)(O)O)O2)cc1F` [FTC-TP, FTC-triphosphate], the “duration of sustained levels in PBMCs” value in series [3] is 28 days.
Regarding `COc1cc2c(cc1Cc1cccc(Cl)c1F)c(=O)c(C(=O)O)cn2[C@H](CO)C(C)C` [Elvitegravir], the aqueous solubility result in series [7] is recorded as “low”.

What is called solubility is how much of the substance goes into solution per volume.
